{
  "source": "patent US7304171B2",
  "about": "“Compounds and methods for cytoprotection” (Migenix Corp., priority 2004, dated 2007)",
  "tested_on": "rd1 mutant mice retinas (retinal photoreceptors)",
  "experiment": "Murine rd1 retinal explant model for retinitis pigmentosa: photoreceptor cytoprotection in vitro",
  "type": "cell-based, mouse",
  "details": "1 μM",
  "description": "Retinas were dissected at postnatal day 7 from rd1 mutant mice (Bowes et al., 1990 Nature 347:677; Frasson et al., 1999 Nat. Med. 5:1183), which carry a spontaneous cGMP phosphodiesterase mutation in retinal rod photoreceptors, leading to rapid and premature rod cell apoptosis in this animal model for the ophthalmic degenerative disease retinitis pigmentosa (RP); control retinas were from the background strain (C3H). Retinas were mounted flat on nitrocellulose membranes attached to culture dish inserts and maintained in serum-free R16 culture medium for 21 days, reflecting a stage corresponding to postnatal day 28 (Caffe et al., 2001 J. Chem. Neuroanat. 22:263). […] Slides containing the sections were coded and scored using light microscopy, by counting the rows of photoreceptors in the outer nuclear layer of the retina for five fields from each section. […] Typically, six sections from each preparation were scored, representing different cutting depths, and the collected averages from the six slides were averaged to yield an average value of remaining rows of retinal photoceptors per retina, which value was used for statistical analysis. Data were analyzed by Student's paired t-test; ratios were also calculated of treated:untreated retinas from each intra-animal pair and analyzed by Student's one-group t-test, with the population mean set to 1.0.",
  "data": [
    {"smiles": "CO/N=C1\\CCC2C3CCc4cc(O)c(C56CC7CC(CC(C7)C5)C6)cc4C3CC[C@]12C", "note": "(some centres unmarked) [compound 5]", "values": [
      {"measurement": "No. Rows Photoreceptors", "setting": "rd1 retinal explant, 21 days of culture, n = 4, paired t-test p = 0.038 vs contralateral DMSO control (1.87 ± 0.11)", "value": "2.11 ± 0.13"},
      {"measurement": "Treated:Untreated", "setting": "ratio of photoreceptor rows, treated:untreated retina of each intra-animal pair, 21 days, 1-group t-test p = 0.144", "value": "1.10 ± 0.10"}
    ]}
  ]
}
